Measured values published in US11352392B2, “Artificially synthesized peptide H-473 and use thereof” (CHINA WEST NORMAL UNIVERSITY, priority 2018, dated 2022).
Ends that are not written are not given here.

Assays:
asthma in mice = test: Effect on asthma in mice (OVA sensitization, BALF cell count); format: in vivo, BALB/C mice; conditions: dexamethasone 1 mg/kg intramuscular, 7 d
Procedure: At day 35 of the experiment, the test samples were respectively given one hour prior to OVA atomization.
5.6.1 Asthma model: mice were injected intraperitoneally with 0.2 ml of a sensitizing solution (ovalbumin OVA 80 μg+ Adjuvant liquid aluminum 0.1 ml) twice on days 0 and 14. From day 24 after the first sensitization, 2.5% OVA was aerosolized and inhaled for 45 min once daily for 18 days.
5.6.2 Administration: the corresponding test sample was given 1 h before the OVA solution atomization challenge since day 35 of the experiment. H-473 15 μg/kg group and H-473 30 μg/kg group were injected intramuscularly, respectively. The positive control group was injected with dexamethasone 1 mg/kg intramuscularly. Normal control group and model control group were injected with saline intramuscularly.
General global observations: respiratory rate, whether there was dyspnea, cyanosis, dysphoria and convulsion.
Bronchoalveolar lavage fluid (BALF) cells were counted and classified (EOS ratio elevated or not).

MGC-803 xenograft tumors = test: Pharmacodynamic experiment on human gastric cancer MGC-803 xenograft tumor in nude mice; format: in vivo, BALB/c nude mice; conditions: MGC-803 xenograft nude mice; H-473 1 μg/kg or Interleukin-2 200,000 IU/kg, tail vein, once a day for 10 times
Procedure: (§1) Model control group: physiological saline, 0.1 ml/10 g, once a day for 10 times.
The cultured MGC-803 cell suspension was collected at a concentration of 1×10^7 cells/ml and inoculated subcutaneously in the right axilla of nude mice, 0.1 ml/mouse.
Diameters of the xenograft tumors in nude mice were measured with a vernier caliper. 8 days after inoculation, the animals were randomized into groups with 8 in each group when the tumors grew to 100-150 mm^3. At the same time, each group of nude mice began to be dosed. […] The anti-tumor effect of the test sample was dynamically observed by using a method of measuring tumor diameter. […]
(§2) Tumor volume (TV) was calculated according to the following formula: TV=½×a×b^2, wherein, a and b represent length and width, respectively.
(§3) Relative tumor volume (RTV) was calculated according to the measured results according to the following formula: RTV=Vt/V0, wherein, V0 is tumor volume measured when the animals are divided into cages and dosed (i.e., d0) and Vt is tumor volume at each measurement.
(§4) Evaluation indicator of anti-tumor activity: relative tumor proliferation rate T/C (%) was calculated according to the following formula:
(§5) Evaluation indicator of antitumor activity: tumor growth inhibition rate (%) was calculated according to the following formula: […]

cfpac-1 xenograft tumors = test: Pharmacodynamic experiment on cfpac-1 xenograft tumor in nude mice; format: in vivo, BALB/c nude mice; conditions: cfpac-1 xenograft nude mice; H-473 1 μg/kg or Interleukin-2 200,000 IU/kg, tail vein, once a day for 10 times
Procedure: as §1
The cultured cfpac-1 cell suspension was collected at a concentration of 1×10^7 cells/ml and inoculated subcutaneously in the right axilla of nude mice, 0.1 ml/mouse.
Diameters of the xenograft tumors in nude mice were measured with a vernier caliper. 17 days after inoculation, the animals were randomized into groups with 8 in each group when the tumors grew to 100-150 mm^3. At the same time, each group of nude mice began to be dosed. […] The anti-tumor effect of the test sample was dynamically observed by using a method of measuring tumor diameter. […]
as §2, §3, §4, §5

Row | Compound | BALF ESO (asthma in mice) | BALF ESO % (asthma in mice) [%] | BALF WBC (asthma in mice) | Body weight of animals At sacrifice (MGC-803 xenograft tumors) [g] | Body weight of animals At sacrifice (cfpac-1 xenograft tumors) [g]
1 | C[C@@H]1C[C@H]2[C@@H]3CCC4=CC(=O)C=C[C@]4(C)[C@@]3(F)[C@@H](O)C[C@]2(C)[C@@]1(O)C(=O)CO [Positive control, dexamethasone] | 0.15 ± 0.05^## 10^9/L | 3.75 ± 0.83 | 3.8 ± 0.5^## 10^9/L |  | 
2 | RGLRGLR [H-473, RGLRGLR] |  |  |  | 22.80 ± 0.97 | 22.91 ± 1.12
